Results published in ChEMBL document CHEMBL4004884, “Sesquiterpene derivatives from marine sponge Smenospongia cerebriformis and their anti-inflammatory activity” (Bioorg Med Chem Lett, 2017).

Assays:
[1] = test system: BV-2; experiment: Antiinflammatory activity in mouse BV2 cells assessed as inhibition of LPS-stimulated nitric oxide production by Griess assay; format: functional, cell-based
[2] = test system: BV-2; experiment: Antiinflammatory activity in mouse BV2 cells assessed as inhibition of LPS-stimulated nitric oxide production at 40 uM by Griess assay relative to control; format: functional
[3] = Cytotoxicity against mouse BV2 cells assessed as cell viability at 40 uM relative to control; format: cell-based, BV-2; conditions: read-out: Activity

## C=C1CCC[C@H]2[C@](C)(C[C@@H]3C(=O)C=C(OC)[C@@H]3O)[C@@H](C)CC[C@]12C
[1]
  IC50: 28.3 µM
[2]
  inhibition at 40 µM: > 50%
[3]
  viability at 40 µM: 174%

## C=C1CCC[C@H]2[C@](C=O)(Cc3cc(C(=O)OC)c(O)c(OC)c3O)[C@@H](C)CC[C@]12C
[1]
  IC50: > 40 µM
[3]
  viability at 40 µM: 106%

## C=C1CCC[C@H]2[C@](C)(Cc3c(O)c(OC)cc4ncoc34)[C@@H](C)CC[C@]12C
[1]
  IC50: > 40 µM
[3]
  viability at 40 µM: 92.1%

## C=C1CCC[C@H]2[C@](CO)(Cc3cc(C(=O)OC)c(O)c(OC)c3O)[C@@H](C)CC[C@]12C
[1]
  IC50: 24.4 µM
[2]
  inhibition at 40 µM: > 50%
[3]
  viability at 40 µM: 160%

## C=C1CCC[C@H]2[C@](C)(C[C@H]3C(=O)C=C(OC)[C@@H]3O)[C@@H](C)CC[C@]12C
[1]
  IC50: 30.1 µM
[2]
  inhibition at 40 µM: > 50%
[3]
  viability at 40 µM: 141%

## C=C1CCC[C@H]2[C@](CO)(Cc3cc(C(=O)OC)cc(OC)c3O)[C@H](C)CC[C@]12C
[1]
  IC50: 24.4 µM
[2]
  inhibition at 40 µM: > 50%
[3]
  viability at 40 µM: 171%

## C=C1CCC[C@H]2[C@](C)(Cc3cc(C(=O)OC)ccc3O)[C@@H](C)CC[C@]12C
[1]
  IC50: > 40 µM
[3]
  viability at 40 µM: 121%

## C=C1CCC[C@H]2[C@](C)(CC3=C(O)C(=O)C=C(OC)C3=O)[C@@H](C)CC[C@]12C [ILIMAQUINONE]
[1]
  IC50: 10.4 µM
[2]
  inhibition at 40 µM: > 50%
[3]
  viability at 40 µM: 95.7%

## C=C1CCC[C@H]2[C@](C)(Cc3cc(C(=O)OC)cc(OC)c3O)[C@@H](C)CC[C@]12C [POLYFIBROSPONGOL A]
[1]
  IC50: > 40 µM
[3]
  viability at 40 µM: 125%

## CNC(=N)NCCC[C@H](N)C(=O)O [TILARGININE]
[1]
  IC50: 22.1 µM
[3]
  viability at 40 µM: 95.5%
